This is an account of results in article PMC4404410, “Crystal structure of X‐prolyl aminopeptidase fromCaenorhabditis elegans: A cytosolic enzyme with a di‐nuclear active site” (FEBS Open Bio, 2015).

Data set [1] deals with T1, C. elegans APP-1 (X-prolyl aminopeptidase, aminopeptidase P1) (Caenorhabditis elegans, UniProt O44750).
T1 construct: full length (residues 1-616), N-terminal His-tag kept, pET19b, E. coli BL21 Star (DE3); homodimer, monomer 71977 Da by MS; two Zn2+ per monomer in crystal
T1 sequence (O44750 1-616): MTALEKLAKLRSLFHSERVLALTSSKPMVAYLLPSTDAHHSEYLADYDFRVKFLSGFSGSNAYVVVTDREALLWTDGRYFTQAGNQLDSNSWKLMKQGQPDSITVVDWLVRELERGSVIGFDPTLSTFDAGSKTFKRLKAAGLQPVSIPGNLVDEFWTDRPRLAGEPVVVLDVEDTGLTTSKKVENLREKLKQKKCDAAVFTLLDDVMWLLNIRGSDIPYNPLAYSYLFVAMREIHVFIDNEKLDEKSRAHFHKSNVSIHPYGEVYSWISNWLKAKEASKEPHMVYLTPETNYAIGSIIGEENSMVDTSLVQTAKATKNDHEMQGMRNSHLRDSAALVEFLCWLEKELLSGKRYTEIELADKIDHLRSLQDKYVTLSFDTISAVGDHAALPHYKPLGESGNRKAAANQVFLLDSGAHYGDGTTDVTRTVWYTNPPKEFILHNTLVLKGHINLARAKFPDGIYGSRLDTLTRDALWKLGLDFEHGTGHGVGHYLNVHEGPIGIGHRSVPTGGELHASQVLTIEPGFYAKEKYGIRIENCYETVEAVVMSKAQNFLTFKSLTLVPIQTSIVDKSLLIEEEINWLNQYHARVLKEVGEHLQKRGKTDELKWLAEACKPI
Put plainly: HPLC assay of bradykinin cleavage ([…] nm). The format is biochemical.

Data set [2] concerns the molecule itself. Put plainly: AUC; sedimentation velocity; 0.3 mg/ml APP-1 dialysed against 10 mM Tris/HCl pH 7.5, 150 mM KCl; 40,000 rpm, 20 °C; Rayleigh interference and absorbance at 275 nm.

Values joined by “and” are separate entries in the source; they are usually repeats but may differ in a detail not shown here. Equal values may be shown once.

In the case of `C[C@H](NC(=O)[C@@H]1CCCN1C(=O)[C@@H]1CCCN1C(=O)[C@@H](O)[C@H](N)Cc1ccccc1)C(N)=O` [apstatin], in data set [1], testing at 10 µM gave an inhibition of 92%.

B1: Caenorhabditis elegans aminopeptidase P1 (APP-1), recombinant, His-tagged (enzyme, C. elegans, UniProt O44750 1-616, looked up)
chain: MTALEKLAKLRSLFHSERVLALTSSKPMVAYLLPSTDAHHSEYLADYDFRVKFLSGFSGSNAYVVVTDREALLWTDGRYFTQAGNQLDSNSWKLMKQGQPDSITVVDWLVRELERGSVIGFDPTLSTFDAGSKTFKRLKAAGLQPVSIPGNLVDEFWTDRPRLAGEPVVVLDVEDTGLTTSKKVENLREKLKQKKCDAAVFTLLDDVMWLLNIRGSDIPYNPLAYSYLFVAMREIHVFIDNEKLDEKSRAHFHKSNVSIHPYGEVYSWISNWLKAKEASKEPHMVYLTPETNYAIGSIIGEENSMVDTSLVQTAKATKNDHEMQGMRNSHLRDSAALVEFLCWLEKELLSGKRYTEIELADKIDHLRSLQDKYVTLSFDTISAVGDHAALPHYKPLGESGNRKAAANQVFLLDSGAHYGDGTTDVTRTVWYTNPPKEFILHNTLVLKGHINLARAKFPDGIYGSRLDTLTRDALWKLGLDFEHGTGHGVGHYLNVHEGPIGIGHRSVPTGGELHASQVLTIEPGFYAKEKYGIRIENCYETVEAVVMSKAQNFLTFKSLTLVPIQTSIVDKSLLIEEEINWLNQYHARVLKEVGEHLQKRGKTDELKWLAEACKPI
notes: Aminopeptidase P1 (APP-1, X-prolyl aminopeptidase), C. elegans, cytosolic; cDNA amplified with primers from the start codon to the stop codon; residues 1-616 (N-terminal domain 1-163, middle domain 164-318, C-terminal domain 319-616); N-terminal His tag and linker come from pET19b and were not removed; Mass spectrometry fits the His-tagged protein after removal of the start methionine (calculated …)
Regarding B1, the stoichiometry N (in general, a count of units in the complex or per binding partner) in data set [2] was 2 and 4.
